Test [1] deals with S. pneumoniae serotype 3 strain WU2. In words: Intranasal inoculation mouse model: nasopharyngeal and lung colonization. The test is classed as in vivo, BALB/c mice. To be noted: for number of bacteria in the lungs: p<0.05. As to the method: Inhibition of S. pneumoniae nasal and lung colonization with flamingo cadherin-related peptide: Seven weeks old BALB/c female mice (Harlan Laboratories, Israel) were housed in sterile conditions under 12 hour light/dark cycles and fed Purina Chow and tap water ad libitum. Animal experimental protocols were reviewed and approved by the Institutional Animal Care and Use Committee of the Ben-Gurion University of the Negev, Beer Sheva, Israel. For respiratory challenge with virulent S. pneumoniae mice were anaesthetized with Isoflurane (RxElite, Meridian, Id., USA) and inoculated intranasally (i.n.) with the denoted colony forming units (CFU) bacteria (in 25 μl PBS) prior and after treatment with the flamingo cadherin derived peptide at the denoted concentrations. […] The experiments were performed with groups of 4 mice at each treatment and each time point and the experiments were repeated on three different occasions.
To find whether FC peptide is capable of inhibiting S. pneumoniae colonization, mice were inoculated intranasally prior and after treatment with the FC-derived peptide at the denoted concentration. S. pneumoniae serotype 3, strain WU2 bacteria were treated with FC peptide, excess peptide was removed and the bacteria were inoculated intranasally. […] Using this size of inoculum, a natural clearance of bacteria from the lungs occurred 24 hours and 48 hours following inoculation.
Seven week old BALB/c female mice were anaesthetized with Isoflurane (RxElite, Meridian, Id.) and inoculated intranasally with S. pneumoniae serotype 3 strain WU2 ([…], a highly virulent bacterial strain) after treatment with 40 μg synthetic Flamingo cadherin receptor derived peptide (FCRP) for 1 hr. […]

A further test concerns the target T1, rFBA (Streptococcus pneumoniae serotype 4, UniProt P0A4S1).
T1 construct: made in house; host or cells: E. coli BL21(DE3)pLysS
As to the kind of experiment: Western blot like assay of FCRP binding to rFBA. Particulars: rFBA on nitrocellulose probed with FCRP; FIG. 7C. As to the method: Western blots: rFBA and FCRP were separated by 1D-SDS PAGE, transferred to nitrocellulose and probed with FCRP or rFBA, respectively. Rabbit anti-FCRP-KLH serum or rabbit anti rFBA was added respectively. In both cases, anti-rabbit IgG (Jackson ImmunoResearch, West Grove, Pa.) was used for final identification. In the control experiment preimmune serum was used as first antibody.
To determine more directly whether FCRP binds to rFBA, Western blot like assays were performed where rFBA is separated using 1D SDS-PAGE, transferred to a nitrocellulose membrane and probed with FCRP. Binding of FCRP was detected by incubating the membrane sequentially with rabbit anti-FCRP-KLH serum and anti-rabbit IgG. […] In the control (FIG. 7D) the first antibody was a pre-immune serum. In the converse experiment, when FCRP is separated on SDS-PAGE, a band of approximately 1.5 kDa corresponding to the molecular weight of FCRP is bound by rFBA (FIG. 7 E). In the control (FIG. 7F) the first antibody was a pre-immune serum.
For orientation: In western blotting, separated proteins are transferred to a membrane and probed.

The text below walks through data of patent US8575093B2, “Composition and method for treating Streptococcus pneumoniae infection” (priority 2006, dated 2013).

T1 sequence (P0A4S1 whole entry): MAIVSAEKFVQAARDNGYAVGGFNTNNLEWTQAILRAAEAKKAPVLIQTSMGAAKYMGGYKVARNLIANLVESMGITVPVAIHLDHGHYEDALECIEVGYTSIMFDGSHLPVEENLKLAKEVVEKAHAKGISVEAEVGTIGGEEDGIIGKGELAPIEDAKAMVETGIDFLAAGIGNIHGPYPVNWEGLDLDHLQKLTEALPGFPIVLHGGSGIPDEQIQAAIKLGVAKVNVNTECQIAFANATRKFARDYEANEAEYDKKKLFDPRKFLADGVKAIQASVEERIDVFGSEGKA

Take “H-Ala-Asp-Ser-Asp-Ser-Asp-Ser-Asp-Leu-Ser-Leu-Glu-Glu-Glu-Arg-OH (H-ADSDSDSDLSLEEER-OH; listed as Homo sapiens) [FCRP, 15 amino acid peptide from Flamingo-cadherin]”: the bacterial colonization entry in test [1] (5×10^6 bacteria, 40 μg ex vivo, FIG. 11A) is on record as “significant inhibition of bacterial colonization”. Besides, the “aspiration to the lung” value in test [1] (5×10^6 bacteria, 40 μg ex vivo, FIG. 11B) is “reduced aspiration to the lung”. The pneumonia development entry in test [1] (5×10^6 bacteria, 40 μg ex vivo, FIG. 11C) was “reduced pneumonia development”. The nasopharyngeal colonization result in test [1] (10^6 bacteria treated ex vivo 1 hr with 40 μg, 3, 24, 48 hours, FIG. 9A) is listed as “inhibited nasopharyngeal colonization significantly”; in test [1] (new peptide preparation, pneumonia-causing batch, 10^6 bacteria, FIG. 10A), “prevented completely”. In test [1] (10^6 bacteria treated ex vivo 1 hr with 40 μg, FIG. 9B), the “aspiration to the lungs” value is given as “significant inhibition of aspiration to the lungs”. Further, the “bacterial load (FIG. 13A)” value in test [1] (10^7 bacteria, pre-treatment, 3 and 48 hrs) is “reduced bacterial load significantly”. Further, the “bacterial load in lungs (FIG. 13B)” value in test [1] (10^7 bacteria, pre-treatment, 24 hour) is recorded as “clear reduction in bacterial load”. The “number of bacteria in the lungs” value in test [1] (co-administered, 4 hours after inoculation) is listed as “reduced significantly”; in test [1] (peptide 1 hr after inoculation, 3 hours after peptide) it was “reduced significantly”. Also, the “colonization in the nasopharynx” value is “inhibited colonization in the nasopharynx significantly” in test [1] (inoculum 5×10^5, 20 μg/ml, 3, 6, 24 and 48 hours, FIG. 4A); “inhibited colonization in the nasopharynx significantly” in test [1] (inoculum 10^6, 20 μg/ml, 3, 6, 24 and 48 hours, FIG. 4C). Moreover, the “colonization of the nasopharynx” value in test [1] (inoculum 5×10^5, 40 μg/ml, all time points, FIG. 4A) is on record as “prevented S. pneumoniae colonization of the nasopharynx at all time points tested”; in test [1] (inoculum 10^6, 40 μg/ml, FIG. 4C), “significantly higher ability to inhibit S. pneumoniae colonization of the nasopharynx”. The “colonization of the lung” value was “inhibited significantly colonization of the lung” in test [1] (inoculum 5×10^5, 20 or 40 μg/ml, 3 and 6 hours, FIG. 4B); “significantly inhibited colonization of the lung” in test [1] (inoculum 10^6, 40 μg/ml, 3, 6 and 24 hours, FIG. 4D). For the same substance, the “bacteria in the lungs” value in test [1] (inoculum 10^6, 20 or 40 μg/ml, 48 hours, FIG. 4D) is “no bacteria could be detected in the lungs”; in test [1] (new peptide preparation, 48 hr following inoculation, FIG. 10C), “no bacteria could be found in the lungs”. Further, the “aspiration of the bacteria to the lungs” value in test [1] (new peptide preparation, pneumonia-causing batch, 10^6 bacteria, FIG. 10B) is recorded as “prevented completely”. Further, in the test with rFBA, the “binding of FCRP to rFBA” value is listed as “a band of 33.5 kDa was shown to bind FCRP”.
